Counter-ions that a name gives are not always drawn.
molecular target: PAF receptor (Oryctolagus cuniculus, UniProt G1TEI7); assay: PAF receptor binding assay: inhibition of specific [3H]C18-PAF binding to rabbit platelet membranes; details: 0.6 nM [3H]C18-PAF, 60 minutes at 22-23 °C, pH 7.0, Ki calculated from IC50 (Cheng and Prusoff)
Sequence (G1TEI7 1-342): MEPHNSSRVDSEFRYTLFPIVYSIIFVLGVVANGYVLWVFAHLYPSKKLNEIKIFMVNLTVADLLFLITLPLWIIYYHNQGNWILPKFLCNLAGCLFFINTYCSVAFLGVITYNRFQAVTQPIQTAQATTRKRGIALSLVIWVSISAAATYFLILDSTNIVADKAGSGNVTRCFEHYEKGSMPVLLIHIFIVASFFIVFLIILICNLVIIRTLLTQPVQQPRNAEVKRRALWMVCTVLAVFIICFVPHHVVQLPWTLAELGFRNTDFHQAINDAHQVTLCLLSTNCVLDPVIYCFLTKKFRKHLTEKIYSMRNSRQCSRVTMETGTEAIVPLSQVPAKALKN

SMILES	Ki [nM]
CN(C(=O)C1CSC(c2cccnc2)N1)c1cccc(C(=O)c2ccccc2)c1 (stereo not drawn) [Example 15, N-(3-benzoylphenyl) N-methyl 2-(3-pyridinyl)-4-thiazolidinecarboxamide dihydrochloride]	620
COc1cc(OC)cc(C(=O)c2cccc(NC(=O)C3CSC(c4cccnc4)N3)c2)c1 (stereo not drawn) [Example 7, N-[3-(3,5-dimethoxybenzoyl)phenyl] 2-(3-pyridinyl)-4-thiazolidinecarboxamide dihydrochloride]	2
O=C(Nc1cccc(C(=O)c2ccccc2)c1)NC1CSC(c2cccnc2)S1 (stereo not drawn) [Example 17a, N-(3-benzoylphenyl) N'-[2-(3-pyridinyl)dithiolan-4-yl] urea]	1300
COc1cc(C(=O)c2cccc(N(C)C(=O)C3CSC(c4cccnc4)S3)c2)cc(OC)c1OC (stereo not drawn) [Example 16, N-[3-(3,4,5-trimethoxybenzoyl)phenyl] N-methyl 2-(3-pyridinyl)-4-dithiolanecarboxamide hydrochloride]	2600
CN(C(=O)NC1CSC(c2cccnc2)S1)c1cccc(C(=O)c2ccccc2)c1 (stereo not drawn) [Example 19b, N-methyl-N-(3-benzoylphenyl) N'-[2-(3-pyridinyl)dithiolan-4-yl] urea]	7000
COc1ccc(C(=O)c2cccc(NC(=O)C3CSC(c4cccnc4)N3)c2)cc1 (stereo not drawn) [Example 5, N-[3-(4-methoxybenzoyl)phenyl] 2-(3-pyridinyl)-4-thiazolidinecarboxamide dihydrochloride]	34
O=C(c1ccccc1)c1cccc(NC(=O)C2CSC(c3cccnc3)S2)c1 (stereo not drawn) [Example 9, N-(3-benzoylphenyl) 2-(3-pyridinyl)-4-dithiolanecarboxamide]	23
COc1cc(C(=O)c2cccc(NC(=O)NC3CSC(c4cccnc4)S3)c2)cc(OC)c1OC (stereo not drawn) [Example 18a, N-[3-(3,4,5-trimethoxybenzoyl)phenyl] N'-[2-(3-pyridinyl)dithiolan-4-yl] urea]	650
COc1cc(C(=O)c2cccc(NC(=O)C3CSC(c4cccnc4)S3)c2)cc(OC)c1OC (stereo not drawn) [Example 10, N-[3-(3,4,5-trimethoxybenzoyl)phenyl] 2-(3-pyridinyl)-4-dithiolanecarboxamide]	570
CN(C(=O)NC1CSC(c2cccnc2)S1)c1cccc(C(=O)c2ccccc2)c1 (stereo not drawn) [Example 19a, N-methyl-N-(3-benzoylphenyl) N'-[2-(3-pyridinyl)dithiolan-4-yl] urea]	2900
COc1ccc(C(=O)c2cccc(NC(=O)C3CSC(c4cccnc4)N3)c2)cc1OC (stereo not drawn) [Example 8, N-[3-(3,4-dimethoxybenzoyl)phenyl] 2-(3-pyridinyl)-4-thiazolidinecarboxamide dihydrochloride]	6
COc1cc(C(=O)c2cccc(NC(=O)NC3CSC(c4cccnc4)S3)c2)cc(OC)c1OC (stereo not drawn) [Example 18b, N-[3-(3,4,5-trimethoxybenzoyl)phenyl] N'-[2-(3-pyridinyl)dithiolan-4-yl] urea]	35
O=C(c1ccccc1)c1cccc(NC(=O)C2CCC(c3cccnc3)N2)c1 (stereo not drawn) [Example 21, N-(3-benzoylphenyl)-2-(3-pyridyl)-5-pyrrolidinecarboxamide]	780
NC(=O)N1C(CC(=O)Nc2cccc(C(=O)c3ccccc3)c2)CSC1c1cccnc1 (stereo not drawn) [Example 14, N-(3-benzoylphenyl) 2-(3-pyridinyl)-3-carbamoylthiazolid-4-ylacetamide]	150
COc1cc(C(=O)c2cccc(N(C)C(=O)NC3CSC(c4cccnc4)S3)c2)cc(OC)c1OC (stereo not drawn) [Example 20a, N-methyl-N-[3-(3,4,5-trimethoxybenzoyl)phenyl] N'-[2-(3-pyridinyl)dithiolan-4-yl] urea]	260
O=C(CC1CSC(c2cccnc2)N1)Nc1cccc(C(=O)c2ccccc2)c1 (stereo not drawn) [Example 13, N-(3-benzoylphenyl) 2-(3-pyridinyl)-thiazolid-4-ylacetamide]	5800
CNC(=O)N1C(C(=O)Nc2cccc(C(=O)c3ccccc3)c2)CSC1c1cccnc1 (stereo not drawn) [Example 12, N-(3-benzoylphenyl) 2-(3-pyridinyl)-3-(N-methylcarbamoyl)-4-thiazolidinecarboxamide]	700
CC(C)(C)OC(=O)N1C(C(=O)Nc2cccc(C(=O)c3ccccc3)c2)CSC1c1cccnc1 (stereo not drawn) [Example 2, N-(3-benzoylphenyl) 2-(3-pyridinyl)-3-tert-butoxycarbonyl-4-thiazolidinecarboxamide]	100000
O=C(Nc1cccc(C(=O)c2ccccc2)c1)NC1CSC(c2cccnc2)S1 (stereo not drawn) [Example 17b, N-(3-benzoylphenyl) N'-[2-(3-pyridinyl)dithiolan-4-yl] urea]	260
COc1cc(C(=O)c2cccc(N(C)C(=O)NC3CSC(c4cccnc4)S3)c2)cc(OC)c1OC (stereo not drawn) [Example 20b, N-methyl-N-[3-(3,4,5-trimethoxybenzoyl)phenyl] N'-[2-(3-pyridinyl)dithiolan-4-yl] urea]	2200
O=CN1C(C(=O)Nc2cccc(C(=O)c3ccccc3)c2)CSC1c1cccnc1 (stereo not drawn) [Example 11, N-(3-benzoylphenyl) 2-(3-pyridinyl)-3-formyl-4-thiazolidinecarboxamide]	500
O=C(c1cccc(NC(=O)C2CSC(c3cccnc3)N2)c1)c1ccc2c(c1)OCO2 (stereo not drawn) [Example 6, N-[3-(3,4-methylenedioxybenzoyl)phenyl] 2-(3-pyridinyl)-4-thiazolidinecarboxamide dihydrochloride]	33
COc1cc(C(=O)c2cccc(NC(=O)C3CSC(c4cccnc4)N3)c2)cc(OC)c1OC (stereo not drawn) [Example 4, N-[3-(3,4,5-trimethoxybenzoyl)phenyl] 2-(3-pyridinyl)-4-thiazolidinecarboxamide dihydrochloride]	1
O=C(c1ccccc1)c1cccc(NC(=O)C2CSC(c3cccnc3)N2)c1 (stereo not drawn) [Example 1, N-(3-benzoylphenyl) 2-(3-pyridinyl)-4-thiazolidine carboxamide]	5

Reference: US5120751A, “Benzoylphenyl pyridinylthiazolidine compounds as platelet activating antagonists” (Abbott Laboratories, priority 1991, dated 1992)
